Assays:
[1] = molecular target: T1, human TLR8 (Homo sapiens, UniProt Q9NR97); experiment: TLR8 inhibition reporter assay (HEK-Blue cells, SEAP reporter, R848 stimulation); format: cell-based; conditions: HEK-Blue cells overexpressing human TLR8, R848 15.9 μM
T1 construct: host or cells: HEK-Blue cells
T1 sequence (Q9NR97 27-1041): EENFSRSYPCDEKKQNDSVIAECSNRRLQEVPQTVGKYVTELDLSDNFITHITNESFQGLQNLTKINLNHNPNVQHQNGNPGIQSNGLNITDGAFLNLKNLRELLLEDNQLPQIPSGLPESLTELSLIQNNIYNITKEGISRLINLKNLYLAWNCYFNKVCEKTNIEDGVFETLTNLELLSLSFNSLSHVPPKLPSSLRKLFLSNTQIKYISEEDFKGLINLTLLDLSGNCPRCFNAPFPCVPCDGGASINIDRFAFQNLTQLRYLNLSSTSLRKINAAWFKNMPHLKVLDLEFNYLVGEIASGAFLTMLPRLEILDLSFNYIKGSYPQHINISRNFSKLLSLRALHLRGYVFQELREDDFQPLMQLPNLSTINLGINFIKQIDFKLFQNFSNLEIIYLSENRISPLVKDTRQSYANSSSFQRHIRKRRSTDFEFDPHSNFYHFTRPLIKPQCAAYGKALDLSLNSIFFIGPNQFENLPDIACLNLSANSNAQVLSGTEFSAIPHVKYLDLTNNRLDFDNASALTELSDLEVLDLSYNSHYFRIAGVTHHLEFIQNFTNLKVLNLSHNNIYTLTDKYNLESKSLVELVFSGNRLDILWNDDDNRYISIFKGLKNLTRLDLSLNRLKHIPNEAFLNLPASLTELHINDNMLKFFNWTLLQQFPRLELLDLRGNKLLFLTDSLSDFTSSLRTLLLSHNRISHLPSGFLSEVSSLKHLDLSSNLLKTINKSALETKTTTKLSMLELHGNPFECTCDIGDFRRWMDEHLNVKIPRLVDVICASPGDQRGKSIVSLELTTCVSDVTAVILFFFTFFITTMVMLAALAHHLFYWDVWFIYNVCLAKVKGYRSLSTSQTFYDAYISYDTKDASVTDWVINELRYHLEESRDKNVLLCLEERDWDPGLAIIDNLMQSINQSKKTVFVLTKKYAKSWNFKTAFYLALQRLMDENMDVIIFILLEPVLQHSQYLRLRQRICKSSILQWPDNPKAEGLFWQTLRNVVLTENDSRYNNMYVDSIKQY
Protocol: TLR7/8/9 Inhibition Reporter Assays
Briefly, cells are seeded into Greiner 384 well plates (15000 cells per well for TLR7, 20,000 for TLR8 and 25,000 for TLR9) and then treated with test compounds in DMSO to yield a final dose response concentration range of 0.05 nM-50 μM. […] After a 22 hour incubation at 37° C., 5% CO2, SEAP levels are determined with the addition of HEK-Blue™ Detection reagent (Invivogen), a cell culture medium that allows for detection of SEAP, according to manufacturer's specifications. The percent inhibition is determined as the % reduction in the HEK-Blue signal present in wells treated with agonist plus DMSO alone compared to wells treated with a known inhibitor.

[2] = molecular target: T2, human TLR9 (Homo sapiens, UniProt Q9NR96); experiment: TLR9 inhibition reporter assay (HEK-Blue cells, SEAP reporter, ODN2006 stimulation); format: cell-based; conditions: HEK-Blue cells overexpressing human TLR9, ODN2006 5 nM
T2 construct: host or cells: HEK-Blue cells
T2 sequence (Q9NR96 26-1032): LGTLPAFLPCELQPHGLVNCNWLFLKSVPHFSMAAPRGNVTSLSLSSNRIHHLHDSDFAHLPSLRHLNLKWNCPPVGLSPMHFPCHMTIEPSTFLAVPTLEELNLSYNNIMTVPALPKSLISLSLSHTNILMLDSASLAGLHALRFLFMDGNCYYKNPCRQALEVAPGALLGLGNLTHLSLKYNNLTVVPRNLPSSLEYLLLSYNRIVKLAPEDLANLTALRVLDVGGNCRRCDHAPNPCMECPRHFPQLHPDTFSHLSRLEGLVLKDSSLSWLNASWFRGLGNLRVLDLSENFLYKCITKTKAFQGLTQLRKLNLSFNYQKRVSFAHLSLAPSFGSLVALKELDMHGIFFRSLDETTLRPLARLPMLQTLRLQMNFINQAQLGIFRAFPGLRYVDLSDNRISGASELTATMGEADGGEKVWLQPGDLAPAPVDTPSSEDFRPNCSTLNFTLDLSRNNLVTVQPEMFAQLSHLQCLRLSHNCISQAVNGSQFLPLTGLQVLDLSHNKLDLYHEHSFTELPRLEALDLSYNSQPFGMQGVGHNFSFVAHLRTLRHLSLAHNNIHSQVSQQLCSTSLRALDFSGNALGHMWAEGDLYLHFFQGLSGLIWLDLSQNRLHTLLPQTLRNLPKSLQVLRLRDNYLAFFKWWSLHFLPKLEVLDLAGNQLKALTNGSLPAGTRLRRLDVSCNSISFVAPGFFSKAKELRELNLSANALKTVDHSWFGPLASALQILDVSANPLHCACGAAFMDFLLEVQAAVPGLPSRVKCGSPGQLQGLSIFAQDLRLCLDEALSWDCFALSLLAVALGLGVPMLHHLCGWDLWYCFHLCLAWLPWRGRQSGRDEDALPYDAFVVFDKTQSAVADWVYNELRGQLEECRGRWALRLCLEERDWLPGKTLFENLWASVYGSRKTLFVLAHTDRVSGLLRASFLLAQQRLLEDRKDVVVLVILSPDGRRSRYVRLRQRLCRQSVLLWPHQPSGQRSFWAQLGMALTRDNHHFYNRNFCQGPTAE
Outline: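 Compound treatment: 30 min, RT, 0.05 nM–50 μM final. Agonist: TLR7 gardiquimod 7.5 μM; TLR8 R848 15.9 μM; TLR9 ODN2006 5 nM. Incubation 22 h, 37 °C, 5% CO2. Readout SEAP, HEK-Blue Detection.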

IC50 [1] [nM]	IC50 [2] [nM]	Structure (SMILES)
29	492	CCc1c(-c2ccc(OC)c(OC)c2)[nH]c2ccc(C3CCN(CCNC)CC3)cc12 [Example 155, 2-(4-(2-(3,4-dimethoxyphenyl)-3-ethyl-1H-indol-5-yl)piperidin-1-yl)-N-methylethanamine di-trifluoroacetic acid]
19	257	COc1ccc(-c2[nH]c3ccc(C4CCN(C5CCN(CC(C)C)CC5)CC4)cc3c2C(C)C)cc1OC [Example 199, 2-(3,4-dimethoxyphenyl)-5-(1′-isobutyl-[1,4′-bipiperidin]-4-yl)-3-isopropyl-1H-indole]
837	32400	CCc1c(-c2ccc(OC)c(OC)c2)[nH]c2ccc(C3CCN(C(C)=O)CC3)cc12 [Example 185, 1-(4-(2-(3,4-dimethoxyphenyl)-3-ethyl-1H-indol-5-yl)piperidin-1-yl)ethan-1-one]
24	1660	COc1ccc(-c2[nH]c3ccc(C4CCN(C(=O)CN(C)C)CC4)cc3c2C(C)C)cc1OC [Example 209, 1-(4-(2-(3,4-dimethoxyphenyl)-3-isopropyl-1H-indol-5-yl)piperidin-1-yl)-2-(dimethylamino)ethan-1-one]
35	374	CNCCN1CCC(c2cc3c(C(C)C)c(-c4ccc(OC)c(OC)c4)[nH]c3cc2F)CC1 [Example 208, 2-(4-(2-(3,4-dimethoxyphenyl)-6-fluoro-3-isopropyl-1H-indol-5-yl)piperidin-1-yl)-N-methylethan-1-amine]
776	≥ 50000	CCc1c(-c2ccc(OC)c(OC)c2)[nH]c2ccc(C3CCN(CC(C)C(F)(F)F)CC3)cc12 (centres unmarked) [Example 180, 2-(3,4-dimethoxyphenyl)-3-ethyl-5-(1-(3,3,3-trifluoro-2-methylpropyl)piperidin-4-yl)-1H-indole]
958	737	CNCCN1CCC(c2ccc3c(c2)c(C)c(-c2ccc(OC)c(OC)c2)n3C)CC1 [Example 114, 2-(4-(2-(3,4-dimethoxyphenyl)-1,3-dimethyl-1H-indol-5-yl)piperidin-1-yl)-N-methylethan-1-amine]
213	613	CCc1c(-c2ccc(OC)c(OC)c2)[nH]c2cc(C)c(C3CCN(CCNC)CC3)cc12 [Example 188, 2-(4-(2-(3,4-dimethoxyphenyl)-3-ethyl-6-methyl-1H-indol-5-yl)piperidin-1-yl)-N-methylethanamine-di-trifluoroacetic acid]

The remaining lines, values behind:

Structure (SMILES)	IC50 [1] [nM]	IC50 [2] [nM]
CCc1c(-c2ccc(OC)c(OC)c2)[nH]c2ccc(C3CCN(C4CCN(Cc5cnc(C)o5)CC4)CC3)cc12 [Example 124, 5-((4-(2-(3,4-dimethoxyphenyl)-3-ethyl-1H-indol-5-yl)-[1,4′-bipiperidin]-1′-yl)methyl)-2-methyloxazole]	248	1280
CCc1c(-c2ccc(OC)c(OC)c2)[nH]c2ccc(C3CCN(C4CCN(Cc5cc(C)nn5C)CC4)CC3)cc12 [Example 132, 2-(3,4-dimethoxyphenyl)-5-(1′-((1,3-dimethyl-1H-pyrazol-5-yl)methyl)-[1,4′-bipiperidin]-4-yl)-3-ethyl-1H-indole]	≥ 50000	695
CCc1c(-c2ccc(OC)c(OC)c2)[nH]c2ccc(C3CCN(C(=O)CNC4CCC(N(C)C)CC4)CC3)cc12 (centres unmarked) [Example 162, 1-(4-(2-(3,4-dimethoxyphenyl)-3-ethyl-1H-indol-5-yl)piperidin-1-yl)-2-((4-(dimethylamino)cyclohexyl)amino)ethan-1-one]	23	402
CCc1c(-c2ccc(OC)c(OC)c2)[nH]c2ccc(C3CCN(C4CCN(CC)CC4)CC3)cc12 [Example 149, 2-(3,4-dimethoxyphenyl)-3-ethyl-5-(1′-ethyl-[1,4′-bipiperidin]-4-yl)-1H-indole]	31	152
CCc1c(-c2ccc(OC)c(OC)c2)[nH]c2ccc(C3CCN(C4CCN(C5CCCC5)CC4)CC3)cc12 [Example 152, 5-(1′-cyclopentyl-[1,4′-bipiperidin]-4-yl)-2-(3,4-dimethoxyphenyl)-3-ethyl-1H-indole]	33	233
CCc1c(-c2ccc(OC)c(OC)c2)[nH]c2ccc(C3CCN(C4CCN(Cc5cc6ccccc6[nH]5)CC4)CC3)cc12 [Example 128, 5-(1′-((1H-indol-2-yl)methyl)-[1,4′-bipiperidin]-4-yl)-2-(3,4-dimethoxyphenyl)-3-ethyl-1H-indole]	629	947
CCc1c(-c2ccc(OC)c(OC)c2)[nH]c2ccc(C3CCN(C4CCN(C(C)C)CC4)CC3)cc12 [Example 151, 2-(3,4-dimethoxyphenyl)-3-ethyl-5-(1′-isopropyl-[1,4′-bipiperidin]-4-yl)-1H-indole]	403	556
COc1ccc(-c2[nH]c3ccc(C4CCN(C(=O)CNC56CC7CC(CC(C7)C5)C6)CC4)cc3c2C(C)C)cc1OC [Example 217, 2-(((3s,5s,7s)-adamantan-1-yl)amino)-1-(4-(2-(3,4-dimethoxyphenyl)-3-isopropyl-1H-indol-5-yl)piperidin-1-yl)ethan-1-one]	379	2130
CCc1c(-c2ccc(OC)c(OC)c2)[nH]c2ccc(C3CCN(C4CCN(Cc5ccc(-c6ccccc6)o5)CC4)CC3)cc12 [Example 143, 2-(3,4-dimethoxyphenyl)-3-ethyl-5-(1′-((5-phenylfuran-2-yl)methyl)-[1,4′-bipiperidin]-4-yl)-1H-indole]	706	730
CCc1c(-c2ccc(OC)c(OC)c2)[nH]c2ccc(C3CCN(C(=O)CN4CCCC(C(=O)O)C4)CC3)cc12 (racemic) [Example 176, 1-(2-(4-(2-(3,4-dimethoxyphenyl)-3-ethyl-1H-indol-5-yl)piperidin-1-yl)-2-oxoethyl)piperidine-3-carboxylic acid]	6550	≥ 50000
CCc1c(-c2ccc(OC)c(OC)c2)[nH]c2ccc(C3CCN(C(=O)CN(C)C)CC3)cc12 [Example 181, 1-(4-(2-(3,4-dimethoxyphenyl)-3-ethyl-1H-indol-5-yl)piperidin-1-yl)-2-(dimethylamino) ethanone]	66	2270

Source: patent publication US11180474B2 (BRISTOL-MYERS SQUIBB COMPANY, priority 2016, dated 2021)
